Measured values from US10376555B2, “Identification of cyclic peptide agonists of galanin receptor 2 and 3 guided by spexin solution structure” (Hong Kong Baptist University, priority 2017, dated 2019).
Entries after “also recorded” stand apart in the source; their conditions may differ. Positions of bridges follow the written chain, without caps; N, C: chain ends. Residues, ends and D or L forms follow the SMILES beside them.

How the values were obtained:
[1] = molecular target: T1, hGalR2 (Homo sapiens, UniProt O43603); experiment: SRE-Luc receptor activation assay, hGalR2; type: cell-based; settings: for hGalR2 Emax: Relative to hSPX Emax; for EC50: HEK293 cells transfected with hGalR2, Gqi, SRE-Luc, 6 h treatment, full-dose, read-out: hGalR2 EC50
T1 construct: host or cells: HEK293
T1 sequence (O43603 1-387): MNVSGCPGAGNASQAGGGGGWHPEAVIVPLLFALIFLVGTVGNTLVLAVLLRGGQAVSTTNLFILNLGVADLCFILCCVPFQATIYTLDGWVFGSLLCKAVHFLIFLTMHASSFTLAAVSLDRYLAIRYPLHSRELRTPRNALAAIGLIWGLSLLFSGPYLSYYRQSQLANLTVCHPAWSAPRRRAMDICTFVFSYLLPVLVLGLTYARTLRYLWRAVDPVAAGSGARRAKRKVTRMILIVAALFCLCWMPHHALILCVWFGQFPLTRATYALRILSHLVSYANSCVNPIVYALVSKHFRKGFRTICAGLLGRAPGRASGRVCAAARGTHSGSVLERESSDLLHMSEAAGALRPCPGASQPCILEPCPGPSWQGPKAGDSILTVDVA

[2] = molecular target: T2, hGalR3 (Homo sapiens, UniProt O60755); experiment: SRE-Luc receptor activation assay, hGalR3; type: cell-based; settings: for hGalR3 Emax: Relative to hSPX Emax; for EC50: HEK293 cells transfected with hGalR3, Gqi, SRE-Luc, 6 h treatment, full-dose, read-out: hGalR3 EC50
T2 construct: host or cells: HEK293
T2 sequence (O60755 1-368): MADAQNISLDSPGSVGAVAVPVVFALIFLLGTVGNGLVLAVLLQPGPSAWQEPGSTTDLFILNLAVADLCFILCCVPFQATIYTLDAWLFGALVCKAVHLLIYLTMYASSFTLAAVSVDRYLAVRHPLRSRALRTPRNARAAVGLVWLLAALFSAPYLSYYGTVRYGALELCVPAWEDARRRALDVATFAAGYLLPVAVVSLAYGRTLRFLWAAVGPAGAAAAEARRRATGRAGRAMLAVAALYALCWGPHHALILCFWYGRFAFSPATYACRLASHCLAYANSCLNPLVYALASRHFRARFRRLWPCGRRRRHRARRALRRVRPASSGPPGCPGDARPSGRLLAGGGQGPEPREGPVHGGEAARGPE

[3] = system: C57BL/6J mice with high-fat-diet (HFD) induced obesity; experiment: Body weight gain in high-fat-diet induced obesity mice, LH101 (Ac) vs hSPX, 18 day treatment; type: in vivo; settings: for food intake: recorded every 3 days
Method: Female and male C57BL/6J mice weighing 22-25 g were purchased from the Laboratory Animal Services Center, The Chinese University of Hong Kong, Hong Kong. The animals were fed with rodent diet with 60 kcal % fat (Research Diets, New Brunswick, N.J.) ad libitum with free access to water and were housed in rooms maintained at 22±1° C. with a 12 h light/dark cycle (lights on 6:00-18:00). Animals were constantly acclimated to the facility until the body weight reached no less than 30 g. Then all the diet-induced obese mice were divided into 3 groups randomly for the drug treatment. Mice body weight was daily monitored, and the food intake amount was recorded every 3 days. The Animal Ethics Committee of Hong Kong Baptist University approved all experimental protocols in accordance with “Institutional Guidelines and Animal Ordinance” from Department of Health, Hong Kong Special Administrative Region.

[4] = molecular target: T3, hGalR1 (Homo sapiens, UniProt P47211); experiment: SRE-Luc receptor activation assay, hGalR1; type: cell-based; settings: for hGalR1 EC50: HEK293 cells transfected with hGalR1, Gqi, SRE-Luc, 6 h treatment, full-dose; for hGalR1 Emax: Relative to hGAL Emax
T3 sequence (P47211 1-349): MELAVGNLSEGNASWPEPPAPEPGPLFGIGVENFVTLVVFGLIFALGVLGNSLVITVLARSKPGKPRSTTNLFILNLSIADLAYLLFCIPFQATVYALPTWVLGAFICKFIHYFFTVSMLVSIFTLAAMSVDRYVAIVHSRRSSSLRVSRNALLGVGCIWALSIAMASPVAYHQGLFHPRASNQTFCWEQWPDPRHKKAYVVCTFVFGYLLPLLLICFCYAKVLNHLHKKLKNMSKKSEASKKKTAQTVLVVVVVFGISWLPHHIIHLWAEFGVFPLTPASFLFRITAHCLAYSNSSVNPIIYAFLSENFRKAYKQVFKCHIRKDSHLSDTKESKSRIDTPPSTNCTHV

[5] = In vitro serum stability assay (RP-HPLC); type: in vitro ADME, rat; settings: rat
Method: The serum stability of CSAs was tested using an in vitro assay followed by reverse-phase high-performance liquid chromatography (RP-HPLC) analysis (FIGS. 33-38).
750 μL RPMI medium 1640 (Thermo Fisher Scientific) was mixed with […] rat serum, and incubated at 37° C. for 15 min before adding peptide. The peptide dissolved in water was added into the reaction buffer to make a final concentration of 100 μg/mL. At each time point (5, 15, 30, 60, 120, 240, and 480 min), 100 μL reaction solution were taken, and mixed with 200 μL 6% trichloroacetic acid (TCA, Sigma-Aldrich). The resulting cloudy solution was cooled at 4° C. for 15 min, and centrifuged for 10 mins at 13,000 rpm. The supernatant was then analyzed by RP-HPLC. The extent of intact peptide was calculated based on the peak area and was normalized using a control sample.

[6] = system: male mice (C57BL/6J) with diet-induced obesity (DIO); experiment: Body weight gain in diet-induced obesity mice, LH101, 14-days-treatment; type: in vivo; settings: 25 μg/kg i.p., vs PBS controls
Method: Male mice (C57BL/6J) weighing about 22-25 g were purchased from the Laboratory Animal Services Center, The Chinese University of Hong Kong, Hong Kong. The animals were fed with a high fat diet (Research Diets, New Brunswick, N.J.) ad libitum with free access to water and were housed in rooms maintained at 22±1° C. with a 12 h light/dark cycle (lights on 6:00-18:00). Animals were constantly acclimated to the facility until the body weight reached 45-50 g. Then all the diet induced obese mice were divided into 2 groups randomly for the drug treatment. The Animal Ethics Committees of Hong Kong Baptist University, approved all experimental protocols, in accordance with “Institutional Guidelines and Animal Ordinance” from Department of Health, Hong Kong Special Administrative Region.

Row | hGalR2 Emax [1] | hGalR3 Emax [2] | hGalR1 EC50 [4] | hGalR1 Emax [4] | half-life at 100 μg/mL ([5]; serum, serum half-life (t1/2)) [min] | half-life at 100 μg/mL ([5]; serum, half-life time in serum) [min] | Structure (SMILES) | area-under-curve (AUC) of body weight gain curve ([3]; 18 day treatment) | time after which weight gain started to wane ([3]; 18 day treatment) [days] | food intake [3] | EC50 [1] [nM] | EC50 [2] [nM] | body weight gain [6] | fold enhancement of half-life [5] [fold] | remaining at 8 h, 100 μg/mL ([5]; serum) [%] | body weight gain ([3]; 25 μg/kg i.p., 18 day treatment, vs PBS controls)
1 | 1.00 | 1.00 | N.M. | N.M. | 66.5 | – | CSCC[C@H](NC(=O)[C@H](C)NC(=O)[C@H](CCC(N)=O)NC(=O)[C@@H]1CCCN1C(=O)[C@@H](NC(=O)[C@H](Cc1c[nH]c2ccccc12)NC(=O)[C@@H](N)CC(N)=O)[C@@H](C)O)C(=O)N[C@@H](CC(C)C)C(=O)N[C@@H](Cc1ccc(O)cc1)C(=O)N[C@@H](CC(C)C)C(=O)N[C@@H](CCCCN)C(=O)NCC(=O)N[C@@H](C)C(=O)N[C@@H](CCC(N)=O)C(N)=O [hSPX, reference compound] | significant body weight control efficacy | 10 | inhibitory effects on food consumption | – | – | – | – | – | –
2 | 0.97 | 1.00 | N.M. | N.M. | 1970 | > 1440 | CSCC[C@@H]1NC(=O)[C@H](C)NC(=O)[C@H](CCC(N)=O)NC(=O)[C@@H]2CCCN2C(=O)[C@H]([C@@H](C)O)NC(=O)[C@H](Cc2c[nH]c3ccccc23)NC(=O)[C@@H](NC(C)=O)CSSC[C@@H](C(=O)N[C@@H](CCC(N)=O)C(N)=O)NC(=O)CNC(=O)[C@H](CCCCN)NC(=O)[C@H](CC(C)C)NC(=O)[C@H](Cc2ccc(O)cc2)NC(=O)[C@H](CC(C)C)NC1=O [LH101 (Ac)] (Ac-CWTPQAMLYLKGCQ-NH2; disulfide 1-13) | significant body weight control efficacy | 8 | inhibitory effects on food consumption | 380 | 390 | – | 29.1 | – | significantly suppressed the body weight gain

Row | Structure (SMILES) | hGalR2 Emax [1] | hGalR3 Emax [2] | hGalR1 EC50 [4] | hGalR1 Emax [4] | half-life at 100 μg/mL ([5]; serum, serum half-life (t1/2)) [min] | half-life at 100 μg/mL ([5]; serum, half-life time in serum) [min] | area-under-curve (AUC) of body weight gain curve ([3]; 18 day treatment) | time after which weight gain started to wane ([3]; 18 day treatment) [days] | food intake [3] | EC50 [1] [nM] | EC50 [2] [nM] | body weight gain [6] | fold enhancement of half-life [5] [fold] | remaining at 8 h, 100 μg/mL ([5]; serum) [%] | body weight gain ([3]; 25 μg/kg i.p., 18 day treatment, vs PBS controls)
3 | CSCC[C@@H]1NC(=O)[C@H](C)NC(=O)[C@H](CCC(N)=O)NC(=O)[C@@H]2CCCN2C(=O)[C@H]([C@@H](C)O)NC(=O)[C@H](Cc2c[nH]c3ccccc23)NC(=O)[C@@H](N)CSSC[C@@H](C(=O)N[C@@H](CCC(N)=O)C(N)=O)NC(=O)CNC(=O)[C@H](CCCCN)NC(=O)[C@H](CC(C)C)NC(=O)[C@H](Cc2ccc(O)cc2)NC(=O)[C@H](CC(C)C)NC1=O [LH101] (H-CWTPQAMLYLKGCQ-NH2; disulfide 1-13) | 1.09 | 1.04 | N.M. | N.M. | 356 | – | – | – | – | 1190 | 1560 | significantly suppressed the body weight gain; also recorded: suppressed mice body weight gain; also recorded: does inhibit body weight gain | 5.3 | 46 | –
